pIC50: −log10 of the molar value.
System: neutrophils
Test: Neutrophil chemotaxis assay
Assay type: cell-based
Settings: 1.5 h; inhibition of neutrophil chemotaxis; chemoattractants 0.1-5 nM; 90 minutes migration at 37° C.; read-out: IC50 values in the above assay
Experimental: The in vitro inhibitory properties of these compounds are determined in the neutrophil chemotaxis assay. Assays were performed in a 96-well plate format according to previously published method (Frevert C W, et al., J Immunolog. Methods, 1998, 213, 41). 96-well chemotaxis chambers 5 μm were obtained from Neuro Probe, all cell buffers were obtained from Invitrogen Paisley, UK, dextran-T500 and Ficoll-Paque Plus™ density gradient centrifugation media were purchased from Pharmacia Biotech Buckinghamshire, UK. Calcein-AM dye was obtained from Molecular Probes. Neutrophils were isolated as previously described (Haslett, C., et al. Am J Path., 1985, 119:101). Citrated whole blood was mixed with 4% (w/v) dextran-T500 and allowed to stand on ice for 30 minutes to remove erythrocytes. Granulocytes (PMN) were separated from peripheral blood mononuclear cells by layering 15 ml of cell suspension onto 15 ml Ficoll-Paque PLUS density gradient and centrifuged at 250×g for 25 minutes. […] The labelled cells were washed with RPMI without phenol red+0.1% bovine serum albumin, prior to use the cells were counted and adjusted to a final concentration of 5×10^6 cells/ml. […] At the end of the incubation period, migrated cells were quantified using a multi-well fluorescent plate reader (Fluoroskan II™, Labsystems) at 485 nm excitation and 538 nm emission. […]

- pIC50: 6.49
SMILES: N#Cc1cc(O)c2[nH]c(Nc3cccc(Cl)c3Cl)nc2c1 [Example 2, 2-(2,3-Dichloro-phenylamino)-7-hydroxy-1H-benzoimidazole-5-carbonitrile]

— patent publication US20090298824A1, “Organic compounds” (priority 2004, published 2009)
